# Source: PMC5761851, “Application of a phenotypic drug discovery strategy to identify biological and chemical starting points for inhibition of TSLP production in lung epithelial cells” (PLoS ONE, 2018)
# Several values for one entry are separate records, joined by “and”; a condition that tells them apart may be missing. Identical values can stand only once. Like-named read-outs stand apart in the source and are kept apart here.
# Assays:
# [1] = target: T1, EP2 (Homo sapiens, UniProt P43116); assay: BioPrint panel: EP2 (h) (agonist); type: binding; details: 1 micromolar, read-out: percentage of inhibition of activity
# T1 construct: purchased Eurofins Pharma Discovery Services (KinaseProfiler; Cerep BioPrint panel)
# Text: (§1) Supplement pone.0189247.s004.xlsx, sheet "Bioprint Selectivity Panel" | column: %
# [2] = test system: Guanylyl cylcase; assay: BioPrint panel: Guanylyl cylcase (activator); type: biochemical; details: 1 micromolar
# Text: as §1
# [3] = target: T2, caspase-3 (Homo sapiens, UniProt P42574); assay: BioPrint panel: caspase-3 (h); type: biochemical; details: 1 micromolar, read-out: percentage of inhibition of activity
# T2 construct: purchased Eurofins Pharma Discovery Services (KinaseProfiler; Cerep BioPrint panel)
# Text: as §1
# [4] = test system: 104 binding assays and 41 cell based and enzyme assays; assay: BioPrint general selectivity panel; details: 1 μM
# Method: (§2) General selectivity profiling was performed at Eurofins Pharma Discovery Services using the BioPrint® panel and reference database. The panel included 104 binding assays (non-peptide, peptide and nuclear receptors, ion channels and amine transporters) and 41 cell based and enzyme assays (including 10 kinases, 9 proteases and 5 phosphodiesterases) (S4 Table). More than 70% were human targets. Compound 4 was tested at a concentration of 1 μM in duplicate (10 μM for P-gp and CYP enzymes). The resulting bioactivity fingerprint was compared with a database of >2,500 BioPrint marketed drugs and reference compounds. IC50 values for selected activities were further characterized at 8 concentrations in duplicate.
# [5] = target: T3, M1 (Homo sapiens, UniProt P11229); assay: BioPrint panel: M1 (h) (antagonist); type: binding; details: 1 micromolar, read-out: percentage of inhibition of activity
# T3 construct: purchased Eurofins Pharma Discovery Services (KinaseProfiler; Cerep BioPrint panel)
# Text: as §1
# [6] = target: T4, A2A (Homo sapiens, UniProt P29274); assay: BioPrint panel: A2A (h) (agonist); type: binding; details: 1 micromolar, read-out: percentage of inhibition of activity
# T4 construct: purchased Eurofins Pharma Discovery Services (KinaseProfiler; Cerep BioPrint panel)
# Text: as §1
# [7] = target: T5, MT3 (QR2) (Mesocricetus auratus, UniProt A0ABM2YAB8); assay: BioPrint panel: MT3; type: binding
# T5 construct: Eurofins Pharma Discovery Services (contract assay service)
# T5 sequence (A0ABM2YAB8 1-231): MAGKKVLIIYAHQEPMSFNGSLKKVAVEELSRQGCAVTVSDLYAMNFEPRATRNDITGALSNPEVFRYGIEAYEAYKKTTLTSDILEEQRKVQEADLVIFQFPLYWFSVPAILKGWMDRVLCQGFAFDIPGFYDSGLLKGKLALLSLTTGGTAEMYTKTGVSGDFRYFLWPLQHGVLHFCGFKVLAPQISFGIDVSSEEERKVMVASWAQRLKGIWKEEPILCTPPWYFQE
# Method: as §2
# [8] = target: T6, CB2 (Homo sapiens, UniProt P34972); assay: BioPrint panel: CB2 (h) (agonist); type: binding; details: 1 micromolar, read-out: percentage of inhibition of activity
# T6 construct: purchased Eurofins Pharma Discovery Services (KinaseProfiler; Cerep BioPrint panel)
# Text: as §1
# [9] = target: T7, P-gp (Homo sapiens, UniProt P08183); assay: BioPrint panel: P-gp (MDR1-MDCKII, calcein AM substrate); type: in vitro ADME; details: 10 micromolar
# T7 construct: purchased Eurofins Pharma Discovery Services (KinaseProfiler; Cerep BioPrint panel)
# Text: as §1
# [10] = target: T8, 5-HT transporter (Homo sapiens, UniProt P31645); assay: BioPrint panel: 5-HT transporter (h) (antagonist); type: binding; details: 1 micromolar, read-out: percentage of inhibition of activity
# T8 construct: purchased Eurofins Pharma Discovery Services (KinaseProfiler; Cerep BioPrint panel)
# Text: as §1
# [11] = target: T9, p38alpha kinase (Homo sapiens, UniProt Q16539); assay: BioPrint panel: p38alpha kinase (h); type: biochemical; details: 1 micromolar, read-out: percentage of inhibition of activity
# T9 construct: purchased Eurofins Pharma Discovery Services (KinaseProfiler; Cerep BioPrint panel)
# Text: as §1
# [12] = target: T10, N neuronal a4 b2 (Homo sapiens, UniProt P17787+P43681); assay: BioPrint panel: N neuronal a4 b2 (h) (agonist); type: binding; details: 1 micromolar, read-out: percentage of inhibition of activity
# T10 construct: purchased Eurofins Pharma Discovery Services (KinaseProfiler; Cerep BioPrint panel)
# Text: as §1
# [13] = target: T11, beta 1 (Homo sapiens, UniProt P08588); assay: BioPrint panel: beta 1 (h) (agonist); type: binding; details: 1 micromolar, read-out: percentage of inhibition of activity
# T11 construct: purchased Eurofins Pharma Discovery Services (KinaseProfiler; Cerep BioPrint panel)
# Text: as §1
# [14] = test system: AMPA; assay: BioPrint panel: AMPA (agonist); type: binding; details: 1 micromolar
# Text: as §1
# [15] = target: T12, Fyn (Homo sapiens, UniProt P06241); assay: BioPrint panel: Fyn kinase (h); type: biochemical; details: 1 micromolar, read-out: percentage of inhibition of activity
# T12 construct: purchased Eurofins Pharma Discovery Services (KinaseProfiler; Cerep BioPrint panel)
# Text: as §1
# [16] = target: T13, Ca2+ channel (N) (Rattus norvegicus, UniProt Q02294); assay: BioPrint panel: Ca2+ channel (N) (antagonist); type: binding; details: 1 micromolar, read-out: percentage of inhibition of activity
# T13 construct: purchased Eurofins Pharma Discovery Services (KinaseProfiler; Cerep BioPrint panel)
# Text: as §1
# [17] = test system: NMDA; assay: BioPrint panel: NMDA (antagonist); type: binding; details: 1 micromolar
# Text: as §1
# [18] = target: T14, D1 (Homo sapiens, UniProt P21728); assay: BioPrint panel: D1 (h) (antagonist); type: binding; details: 1 micromolar, read-out: percentage of inhibition of activity
# T14 construct: purchased Eurofins Pharma Discovery Services (KinaseProfiler; Cerep BioPrint panel)
# Text: as §1
# [19] = target: T15, MCH1 (Homo sapiens, UniProt Q99705); assay: BioPrint panel: MCH1 (h) (agonist); type: binding; details: 1 micromolar, read-out: percentage of inhibition of activity
# T15 construct: purchased Eurofins Pharma Discovery Services (KinaseProfiler; Cerep BioPrint panel)
# Text: as §1
# [20] = target: T16, V1a (Homo sapiens, UniProt P37288); assay: BioPrint panel: V1a (h) (agonist); type: binding; details: 1 micromolar, read-out: percentage of inhibition of activity
# T16 construct: purchased Eurofins Pharma Discovery Services (KinaseProfiler; Cerep BioPrint panel)
# Text: as §1
# [21] = target: T17, IP (PGI2) (Homo sapiens, UniProt P43119); assay: BioPrint panel: IP (PGI2) (h) (agonist); type: binding; details: 1 micromolar, read-out: percentage of inhibition of activity
# T17 construct: purchased Eurofins Pharma Discovery Services (KinaseProfiler; Cerep BioPrint panel)
# Text: as §1
# [22] = target: T18, PDE5 (Homo sapiens, UniProt O76074); assay: BioPrint panel: PDE5; type: biochemical
# T18 construct: Eurofins Pharma Discovery Services (contract assay service)
# Method: as §2
# [23] = target: T19, CaMK2alpha (Homo sapiens, UniProt Q9UQM7); assay: BioPrint panel: CaMK2alpha (h); type: biochemical; details: 1 micromolar, read-out: percentage of inhibition of activity
# T19 construct: purchased Eurofins Pharma Discovery Services (KinaseProfiler; Cerep BioPrint panel)
# Text: as §1
# [24] = test system: LAD2 cells degranulation; assay: Syk dependent LAD2 cells degranulation; type: cell-based, human
# Method: Normal human bronchial epithelial cells (NHBE) (Lonza CC-2540,) corresponding to 2 different lots derived from 2 human healthy donors, henceforth referred to as donors #1 and #2, were purchased from Lonza, who provided the cells after obtaining permission for use in research applications by informed consent. Cells were cultured in 5% CO2 at 37°C according to the manufacturer´s instructions using Lonza´s Bronchial Epithelial Basal Medium (BEBM) (CC-3171) supplemented with Lonza´s Bronchial Epithelial Cell Growth Medium bullet kit (BEGM) (CC-4175), and grown in collagen coated T-75 and T-175 tissue culture flasks as required (Becton Dickinson 356485 and 356487). Subculturing after trypsinization and amplification was performed using Lonza´s reagent pack subculture reagents (CC-5034) following the manufacturer´s instructions. CHO-K1 and THP-1 cells were purchased from the ATCC through LGC standards (ATCC CCL-61 and TIB-202 respectively). The LAD2 cell line is a human mast cell line established at the National Institutes of Health (Bethesda, Maryland, U.S.).
# Quantification of enzymatic p38 activity and p38-dependent TNF production in THP-1 cells was performed as previously described. Enzymatic Syk kinase activity assays and Syk dependent LAD2 cells degranulation assays were performed as previously described. PI3Kδ dependent pAkt phosphorylation in macrophage colony-stimulating factor (M-CSF) stimulated THP-1 cells was measured as previously described.
# [25] = target: p38α (Homo sapiens, UniProt Q16539); assay: enzymatic p38 activity; type: biochemical
# p38α, sequence (Q16539 whole entry): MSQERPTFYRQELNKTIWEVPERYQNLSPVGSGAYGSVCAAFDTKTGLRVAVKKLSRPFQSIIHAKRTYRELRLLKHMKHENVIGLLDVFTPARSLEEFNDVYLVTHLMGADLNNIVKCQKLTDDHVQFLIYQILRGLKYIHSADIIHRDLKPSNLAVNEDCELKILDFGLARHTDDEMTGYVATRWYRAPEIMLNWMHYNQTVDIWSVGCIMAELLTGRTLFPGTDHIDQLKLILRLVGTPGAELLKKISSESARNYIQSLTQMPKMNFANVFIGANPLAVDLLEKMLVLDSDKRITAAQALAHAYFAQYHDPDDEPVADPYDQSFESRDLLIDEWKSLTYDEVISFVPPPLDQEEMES
# T12 sequence (P06241 whole entry): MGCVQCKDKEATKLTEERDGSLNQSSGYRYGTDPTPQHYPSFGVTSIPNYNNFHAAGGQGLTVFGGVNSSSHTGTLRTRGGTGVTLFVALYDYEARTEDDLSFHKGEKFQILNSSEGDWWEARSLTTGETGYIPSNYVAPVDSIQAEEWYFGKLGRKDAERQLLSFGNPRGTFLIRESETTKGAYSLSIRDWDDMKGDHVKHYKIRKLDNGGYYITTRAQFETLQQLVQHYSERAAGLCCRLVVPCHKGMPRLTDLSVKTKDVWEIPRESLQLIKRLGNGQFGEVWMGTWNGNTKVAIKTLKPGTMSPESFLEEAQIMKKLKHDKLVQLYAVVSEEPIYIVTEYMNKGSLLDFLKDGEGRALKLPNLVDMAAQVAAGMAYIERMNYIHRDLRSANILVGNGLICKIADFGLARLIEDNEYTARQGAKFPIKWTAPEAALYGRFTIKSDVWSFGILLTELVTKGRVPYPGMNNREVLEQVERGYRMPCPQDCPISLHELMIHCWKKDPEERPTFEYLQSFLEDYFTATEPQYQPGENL
# T15 sequence (Q99705 whole entry): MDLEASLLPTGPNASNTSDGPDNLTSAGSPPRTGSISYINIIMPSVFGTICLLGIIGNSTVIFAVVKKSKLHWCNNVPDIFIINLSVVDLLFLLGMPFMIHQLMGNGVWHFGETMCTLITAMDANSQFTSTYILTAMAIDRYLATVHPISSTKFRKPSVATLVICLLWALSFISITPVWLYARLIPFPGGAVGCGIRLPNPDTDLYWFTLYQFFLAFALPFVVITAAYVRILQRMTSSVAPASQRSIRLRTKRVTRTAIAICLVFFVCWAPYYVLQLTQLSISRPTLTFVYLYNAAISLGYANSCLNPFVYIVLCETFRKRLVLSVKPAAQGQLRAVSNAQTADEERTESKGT
# T14 sequence (P21728 whole entry): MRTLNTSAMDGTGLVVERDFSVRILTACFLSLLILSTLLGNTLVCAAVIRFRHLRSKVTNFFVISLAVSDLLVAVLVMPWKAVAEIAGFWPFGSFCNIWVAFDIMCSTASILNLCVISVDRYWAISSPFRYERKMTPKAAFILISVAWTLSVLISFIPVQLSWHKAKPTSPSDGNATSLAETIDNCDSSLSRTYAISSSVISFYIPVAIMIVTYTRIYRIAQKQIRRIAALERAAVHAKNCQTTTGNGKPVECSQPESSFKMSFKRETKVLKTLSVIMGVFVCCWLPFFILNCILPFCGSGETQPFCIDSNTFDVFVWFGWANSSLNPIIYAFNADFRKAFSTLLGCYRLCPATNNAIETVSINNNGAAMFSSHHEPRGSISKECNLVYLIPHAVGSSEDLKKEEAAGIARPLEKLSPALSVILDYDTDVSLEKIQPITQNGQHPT
# T6 sequence (P34972 whole entry): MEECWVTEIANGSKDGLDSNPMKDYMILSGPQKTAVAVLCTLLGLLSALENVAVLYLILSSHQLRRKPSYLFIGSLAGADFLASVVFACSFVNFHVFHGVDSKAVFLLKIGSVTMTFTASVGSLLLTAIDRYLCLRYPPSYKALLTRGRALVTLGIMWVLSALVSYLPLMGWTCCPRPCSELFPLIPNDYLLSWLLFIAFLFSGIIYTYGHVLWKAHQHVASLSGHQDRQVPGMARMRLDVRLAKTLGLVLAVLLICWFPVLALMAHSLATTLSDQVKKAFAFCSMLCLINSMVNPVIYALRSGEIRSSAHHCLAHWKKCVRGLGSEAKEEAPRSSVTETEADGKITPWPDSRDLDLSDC
# T13 sequence (Q02294 whole entry): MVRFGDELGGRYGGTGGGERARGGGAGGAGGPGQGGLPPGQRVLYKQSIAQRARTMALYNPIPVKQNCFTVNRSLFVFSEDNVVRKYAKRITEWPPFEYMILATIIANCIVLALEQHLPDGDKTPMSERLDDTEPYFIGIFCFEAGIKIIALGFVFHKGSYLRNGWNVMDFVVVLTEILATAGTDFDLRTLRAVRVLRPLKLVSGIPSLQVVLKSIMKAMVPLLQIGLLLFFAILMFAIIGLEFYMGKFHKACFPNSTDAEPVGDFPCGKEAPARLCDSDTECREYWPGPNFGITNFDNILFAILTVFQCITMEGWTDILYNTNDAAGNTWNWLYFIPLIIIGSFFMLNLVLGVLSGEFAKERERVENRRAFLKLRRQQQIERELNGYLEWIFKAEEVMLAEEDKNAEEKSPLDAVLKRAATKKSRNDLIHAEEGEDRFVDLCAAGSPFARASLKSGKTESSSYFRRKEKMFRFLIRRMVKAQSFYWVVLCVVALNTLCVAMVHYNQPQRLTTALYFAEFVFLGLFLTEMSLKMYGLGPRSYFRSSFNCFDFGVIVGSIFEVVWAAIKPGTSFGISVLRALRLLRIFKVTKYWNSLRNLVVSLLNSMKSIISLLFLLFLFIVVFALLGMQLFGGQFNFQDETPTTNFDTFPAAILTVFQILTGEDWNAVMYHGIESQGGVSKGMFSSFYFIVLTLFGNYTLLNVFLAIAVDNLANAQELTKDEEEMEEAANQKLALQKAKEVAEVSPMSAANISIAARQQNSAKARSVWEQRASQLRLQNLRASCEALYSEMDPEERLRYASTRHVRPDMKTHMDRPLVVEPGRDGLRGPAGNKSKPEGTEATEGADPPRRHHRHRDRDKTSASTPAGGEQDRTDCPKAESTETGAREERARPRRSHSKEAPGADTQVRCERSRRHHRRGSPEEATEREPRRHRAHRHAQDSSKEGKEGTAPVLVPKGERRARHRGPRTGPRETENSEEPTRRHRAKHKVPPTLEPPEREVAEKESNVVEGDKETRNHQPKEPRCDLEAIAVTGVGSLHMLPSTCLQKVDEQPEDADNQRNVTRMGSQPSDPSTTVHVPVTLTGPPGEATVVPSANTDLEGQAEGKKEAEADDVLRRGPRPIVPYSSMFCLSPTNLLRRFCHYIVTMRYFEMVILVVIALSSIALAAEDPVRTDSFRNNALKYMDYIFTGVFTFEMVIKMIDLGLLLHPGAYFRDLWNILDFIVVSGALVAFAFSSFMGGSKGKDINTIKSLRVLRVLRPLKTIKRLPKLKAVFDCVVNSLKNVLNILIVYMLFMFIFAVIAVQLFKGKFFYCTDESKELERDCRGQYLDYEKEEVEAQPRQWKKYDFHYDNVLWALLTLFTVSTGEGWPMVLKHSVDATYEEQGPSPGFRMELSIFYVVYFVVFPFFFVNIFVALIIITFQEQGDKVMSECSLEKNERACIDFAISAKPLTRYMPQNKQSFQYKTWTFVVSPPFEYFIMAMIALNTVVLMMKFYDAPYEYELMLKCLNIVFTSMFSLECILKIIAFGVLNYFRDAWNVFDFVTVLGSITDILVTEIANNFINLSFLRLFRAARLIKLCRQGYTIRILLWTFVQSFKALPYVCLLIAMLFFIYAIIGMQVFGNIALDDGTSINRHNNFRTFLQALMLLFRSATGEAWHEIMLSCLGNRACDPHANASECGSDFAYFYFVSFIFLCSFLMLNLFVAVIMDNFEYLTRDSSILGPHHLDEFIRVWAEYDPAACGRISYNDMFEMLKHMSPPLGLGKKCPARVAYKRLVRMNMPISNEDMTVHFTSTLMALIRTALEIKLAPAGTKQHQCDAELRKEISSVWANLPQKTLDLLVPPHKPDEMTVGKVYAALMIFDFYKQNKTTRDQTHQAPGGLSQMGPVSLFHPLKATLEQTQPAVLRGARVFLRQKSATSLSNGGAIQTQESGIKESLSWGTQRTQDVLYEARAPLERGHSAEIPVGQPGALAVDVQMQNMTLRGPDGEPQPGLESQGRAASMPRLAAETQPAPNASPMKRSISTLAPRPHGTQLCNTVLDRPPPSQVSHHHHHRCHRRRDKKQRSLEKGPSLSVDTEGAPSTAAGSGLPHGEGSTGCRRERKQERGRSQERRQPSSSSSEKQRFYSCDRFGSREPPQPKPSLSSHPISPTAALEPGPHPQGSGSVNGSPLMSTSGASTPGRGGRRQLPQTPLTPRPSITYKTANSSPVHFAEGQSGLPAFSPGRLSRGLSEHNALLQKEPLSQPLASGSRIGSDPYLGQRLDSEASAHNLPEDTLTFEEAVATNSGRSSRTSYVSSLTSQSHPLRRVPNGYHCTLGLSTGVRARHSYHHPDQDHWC
# T2 sequence (P42574 29-175 limits assumed): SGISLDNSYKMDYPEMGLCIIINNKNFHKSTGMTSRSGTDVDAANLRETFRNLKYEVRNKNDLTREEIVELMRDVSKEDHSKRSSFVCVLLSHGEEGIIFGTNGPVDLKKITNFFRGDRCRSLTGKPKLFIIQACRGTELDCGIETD
# T2 sequence (P42574 176-277 limits assumed): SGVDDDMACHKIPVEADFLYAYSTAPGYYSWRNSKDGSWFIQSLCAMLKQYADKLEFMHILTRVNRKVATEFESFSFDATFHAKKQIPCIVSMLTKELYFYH
# T1 sequence (P43116 whole entry): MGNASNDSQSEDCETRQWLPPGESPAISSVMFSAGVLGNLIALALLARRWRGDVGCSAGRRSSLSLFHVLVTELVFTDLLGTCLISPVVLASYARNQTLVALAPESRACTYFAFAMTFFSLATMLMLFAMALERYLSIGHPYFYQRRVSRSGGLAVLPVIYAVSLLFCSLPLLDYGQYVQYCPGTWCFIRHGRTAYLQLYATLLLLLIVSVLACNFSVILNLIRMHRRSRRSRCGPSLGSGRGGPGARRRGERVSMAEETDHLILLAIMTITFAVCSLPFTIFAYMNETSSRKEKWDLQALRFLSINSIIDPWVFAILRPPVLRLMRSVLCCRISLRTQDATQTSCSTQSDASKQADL
smiles,measurement,setting,value
Cn1cc(-c2cccc(-c3nc(C(=O)NC4C5CC6CC4CC(O)(C6)C5)c(N)nc3N)c2)cn1 (stereo not shown) [compound 4],inhibition at 1 µM,[1],-23.9%
same,percentage of inhibition of activity,[2],0%
same,inhibition at 1 µM,[3],3.9%
same,Inhibition of 129 additional activities,[4],less than 50%
same,inhibition at 1 µM,[5],-16.7%
same,inhibition at 1 µM,[6],-5.3%
same,inhibition at 1 µM,"[7]; 1 μM, read-out: inhibition of MT3",71%
same,inhibition at 1 µM,"[7]; 1 micromolar, MT3 (ML2) (agonist), read-out: percentage of inhibition of activity",71.9%
same,IC50,"[7]; dose response, duplicate, read-out: Inhibition of indicated activity (IC50, μM): MT3 (QR2)",0.4 µM
same,inhibition at 1 µM,[8],-12.2%
same,percentage of inhibition of activity,[9],82.8%
same,inhibition at 1 µM,[10],-8.5%
same,inhibition at 1 µM,[11],1.5%
same,inhibition at 1 µM,[12],-13.9%
same,inhibition at 1 µM,[13],-1.8%
same,percentage of inhibition of activity,[14],3.7%
same,inhibition at 1 µM,[15],-9.2%
same,inhibition at 1 µM,[16],-2.7%
same,percentage of inhibition of activity,[17],-6.8%
same,inhibition at 1 µM,[18],2.3%
same,inhibition at 1 µM,[19],34.6%
same,inhibition at 1 µM,[20],-9.3%
same,inhibition at 1 µM,[21],-5.1%
same,inhibition at 1 µM,"[22]; 1 μM, read-out: inhibition of PDE5",61%
same,inhibition at 1 µM,"[22]; 1 micromolar, PDE5 (h) (non-selective), read-out: percentage of inhibition of activity",61.5%
same,IC50,"[22]; dose response, duplicate, read-out: Inhibition of indicated activity (IC50, μM): PDE5",0.92 µM
same,inhibition at 1 µM,[23],-53.9%
CS(=O)(=O)N1CCN(c2ccc(Nc3ncc(C(N)=O)c(NC4CC4)n3)cc2)CC1 [compound 5],IC50,"[24]; Homo sapiens, LAD2, geometric mean, read-out: Activity in reference cell based assay (IC50, μM) (95% CI) LAD2 cells degranulation",0.019 µM
same,IC50,"[24]; individual values, read-out: Cellular activity (IC50, mM) LAD2 cells degranulation",0.0341 µM and 0.015 µM and 0.0149 µM
"COc1c(NC(=O)c2ccc(C)c(-c3nnc4c(NCC(C)(C)C)nccn34)c2)cc(C(C)(C)C)cc1NS(C)(=O)=O [compound 7, reference compound]",IC50,"[25]; geometric mean, read-out: Activity in reference biochemical assay (IC50, μM) (95% CI) p38α",0.003 µM
same,IC50,"[25]; individual values, read-out: Biochemical activity (IC50, mM) (p38a)",0.008 µM and 0.005 µM and 0.001 µM
